Test results from patent US6989263B1, “Method for identifying and using compounds that inactivate HIV-1 and other retroviruses by attacking highly conserved zinc fingers in the viral nucleocapsid protein” (The United States of America as represented by the …, priority 1994, dated 2006).
pIC50: −log10 of the molar value. “Also recorded” adds a separate entry of the source. Read-outs that look alike come from different tables or passages of the source.

Assays:
p7NC = target: T1, p7NC (Human immunodeficiency virus type 1 group M subtype B, UniProt P05888); assay: HPLC analysis of reaction products of purified p7NC with reagent; type: biochemical, HIV-1; set-up: key to Protein (HPLC): reaction products / Protein (HPLC): reaction rate: formation of non-native, intra-protein disulfide links (designated “Disulfides”); some of the reagents form adducts with the cysteine residues as well (designated “Adducts”); slow: “Slow” reactions are those in which greater than 10% of the p7NC protein remained in its native form after the 10 minute incubation with reagent; very slow: “Very slow” reactions are those in which greater than 50% of the p7NC protein remained in its native form after the 10 minute incubation with reagent; fast: “Fast” reactions result in complete transformation of the p7NC protein to non-native conformations during the 10 minute incubation period; details: for Protein (HPLC): reaction products / Protein (HPLC): reaction rate: 63 μM p7NC, 6 reagent : 1 protein, 10 minutes
T1 construct: The NC protein of HIV-1 (MN) p7NC was expressed in E. coli; made in house; host or cells: E. coli (vector pMAL-c)
Text: Highly purified retroviral NC proteins can be produced by expression from vectors generated through recombinant DNA technology. These proteins when reconstituted with zinc (see, Summers, et al., Protein Science 1:563–567 (1992) for methods), provide the source of the NC proteins containing the zinc fingers that are the targets for attack by the compounds of this invention. When the zinc fingers in NC proteins react with identified compounds, the reaction produces a covalent change in the NC protein, and the modified protein can be separated from the unreacted protein by, for example, reversed phase HPLC.
Samples of p7NC and apo-p7 were reacted with varying amounts of cupric chloride and resulting products separated by HPLC. The reactions were carried out using 44.3 μM protein (p7NC or apo-p7) in 0.1 M Tris-HCl, pH 7.4, for 6 minutes at room temperature with varying concentrations of CuCl2 to achieve the indicated ratios of reactants, in a final volume of 0.7 ml. Chromatography was carried out on the resulting products at pH 2 (0.05% trifluoroacetic acid) on μBondapak™ C-18 (3.9×300 mm) at 1.0 ml/minute using an acetonitrile gradient (0–17%, 20 ml; 17–20%, 60 ml; 20–60%, 10 ml). Elution positions of unreacted protein (p7NC or apo-p7) are indicated as apo-p7.
A two-fold excess of NOBA was reacted with p7NC, and the products were separated by HPLC (FIG. 10) as described above for Cu^+2 and p7NC. Elution positions for the reactants (NOBA and unreacted p7NC) and products, reacted p7NC, NOBA, HABA and AzoxyBA are indicated and an elution profile is included in FIG. 10. NOBA and AzoxyBA were supplied by Octamer, Inc. (Mill Valley, Calif.) and used as HPLC standards.
The disulfide reagent of choice (each available from the Aldrich Chemical Company (Milwaukee, Wis.)) was incubated for 10 minutes with purified p7NC protein (63 μM) at a ratio of 6 molecules of reagent to 1 molecule of NC protein (there are 6 cysteine thiols per NC protein). The formation of non-native protein conformations was monitored by HPLC as described above. […] Generally, the inactivation proceeds by formation of non-native, intra-protein disulfide links (designated “Disulfides”), but some of the reagents form adducts with the cysteine residues as well (designated “Adducts”). “Slow” reactions are those in which greater than 10% of the p7NC protein remained in its native form after the 10 minute incubation with reagent. “Very slow” reactions are those in which greater than 50% of the p7NC protein remained in its native form after the 10 minute incubation with reagent. “Fast” reactions result in complete transformation of the p7NC protein to non-native conformations during the 10 minute incubation period.

[1] = target: T2, HIV NC protein in intact virus (Human immunodeficiency virus type 1 group M subtype B, UniProt P05888); assay: Cross-linking of NC protein in intact HIV (non-reducing gel-mobility shift, western blot); type: biochemical, HIV-1; details: for X-link T-½ (min), HIV NC protein (top number): intact HIV generally 12.5 μM, reagent generally 25 μM; for X-link T-½ (min), HIV NC protein: HIV-1 @ 50 μM
T2 construct: endogenous in cells; host or cells: intact HIV virions
Text: Purified concentrated retrovirus and antisera against the purified NC protein of the virus can be used to test the ability of a specific compound to penetrate the virus and react with the NC protein by forming disulfide complexes in the core of the virus. The compound is mixed with the whole retrovirus under reaction conditions appropriate for the compound. The virus is then removed from the reagent by centrifugation and disrupted in, e.g, standard SDS-PAGE sample buffer with (reduced) and without (non-reduced) 2-mercaptoethanol. The viral proteins are then separated by standard SDS-PAGE and the sample examined for the presence or absence of the monomeric NC protein in the non-reduced sample. Depending upon the virus used in the experiment and the conditions of electrophoresis, the NC protein can be visualized by protein staining methods, or by immuno-blot (e.g., western) methods. Compounds which react with the NC protein by attacking the zinc finger complexes and forming disulfide cross-linked products (i.e., which generate multimers in the mobility shift assay) inactivate the virus. Thus, compounds of interest (i.e., those which cause cross-linking) reduced the amount of monomeric NC protein detected.
In order to determine whether HIV-1MN was inactivated by NOBA, the virus was incubated with varying concentrations of NOBA (3.0, 0.3, 0.03 and 0 mM) as in Table 1. The reaction products were pelleted by centrifugation, and separated by SDS-PAGE under reducing (2% 2-mercaptoethanol, panel A), or non-reducing conditions (panel B). p7NC was visualized by immunoblot analysis using monospecific rabbit antisera to the purified NC proteins as per L. E. Henderson et al., J. Virol. 66:1856 (1992).
Disulfide reagents were further tested for their ability to disrupt NC structure in the virus, based on their ability to cause inter-NC cysteine disulfide bonds (i.e., cross-linking) in the intact virus. The formation of inter-NC cysteine disulfides creates NC multimers, which migrate through a non-reducing gel at a different rate than NC monomers, as described above. Intact HIV virus (generally 12.5 μM) was exposed to the specified reagent (generally 25 μM) for varying lengths of time and electrophoresed through a non-reducing SDS-polyacrylamide gel. HIV NC monomers and multimers were visualized by western blot analysis as described above in Example 3. The approximate time required to cross-link one-half of the NC proteins in the virus at the specified reaction conditions was then determined. […] The top number in the cells of the X-link column in Table 2 refers to the approximate time in minutes required for one-half of the HIV NC proteins to become cross-linked.

[2] = target: T3, p11 Nucleocapsid Protein (p11NC) (Equine infectious anemia virus, UniProt P69732); assay: Cross-linking of p11NC in intact EIAV particles (gel-mobility shift); type: biochemical; details: intact EIAV (50 μM), 4× the HIV assay concentrations
T3 construct: a variety of disulfide reagents cross-link the p11NC protein in intact viral particles; endogenous in cells; host or cells: intact EIAV particles
T3 sequence (P69732 360-435): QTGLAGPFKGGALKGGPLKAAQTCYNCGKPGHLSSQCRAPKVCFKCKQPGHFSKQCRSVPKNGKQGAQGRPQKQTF
Text: Essentially the same strategy was employed to analyze the ability of the various disulfide reagents to cross-link the p11 Nucleocapsid Protein (p11NC) in intact Equine Infectious Anemia Virus (EIAV) particles. The advantages of working with EIAV include the fact that it is not a human pathogen, and that the p11NC protein can be visualized by simple coomassie-blue staining after performing the gel-mobility shift assay (rather than by western blotting as for HIV) described above. The reaction conditions were essentially the same for the EIAV assays as for the HIV assays described above, except that the concentration of virus and disulfide reagent was 4× the concentrations used in the HIV assay above. The second number in each cell in the X-link column in Table 2 represents the time required to cross-link one-half of the p11NC protein in the intact viral particles. […] The bottom number in each cell of the X-link column, unless otherwise indicated, represents the concentration of EIAV used in the assay. Blank cells throughout Table 2 indicate that the compound has yet to be tested for the specified property.

[3] = cited from earlier work
HIV-1 = details: read-out: TCID (Virus): concentration of reagent required to inactivate half of a standardized number of HIV-1 virus particles; tissue culture infectivity assay
Protocol: Concomitantly, the drug treated virions are tested for activity. The virions are suspended in media (rather than solubilized) and added to target cells. The cultures are then examined to determine whether the virions are still active.

HIV-1 (MN) p7NC = target: T4, HIV-1 (MN) p7NC (Human immunodeficiency virus type 1 group M subtype B, UniProt P05888); assay: Intrinsic Trp-37 fluorescence quenching of p7NC; type: biochemical; details: for change in intrinsic fluorescence of p7NC on incubation: Trp-37 fluorescence, zinc-reconstituted p7NC
T4 construct: The NC protein of HIV-1 (MN) p7NC was expressed in E. coli; made in house; host or cells: E. coli (vector pMAL-c)
Text: The NC protein of HIV-1 (MN) p7NC was expressed in E. coli. The coding sequence for HIV-1(MN) p7NC was cloned and expressed using an inducible E. coli promoter in the vector pMAL-c (New England Biolabs Inc., Beverly, Mass.). The protein was expressed as a maltose-binding fusion protein and released by proteolysis with Factor Xa. HIV-1(MN) p7NC was purified by HPLC and characterized, including complete amino acid sequence analysis. p7NC was purified by high-pressure liquid chromatography (HPLC) and reconstituted with two equivalents of zinc to generate native protein as described (M. F. Summers et al., Protein Sci. 1, 563 (1992)).
Coordination of Zn^+2 enhances the intrinsic fluorescence of the single tryptophan (Trp-37) in the second zinc finger. […] The initial phase of the reaction with Cu^+2 (T1/2<20 seconds) gave 70% quenching of the original fluorescence, followed by a much slower phase (T1/2 ca. 6 minutes), resulting in a final limiting quenching of 85%.
The first quenching phase was a second order reaction, whereas the second phase was independent of protein concentration or oxidizing species.

SMILES | Protein (HPLC): reaction products (p7NC) | X-link T-½ (min), HIV NC protein (top number) [1] | X-link T-½ (min), EIAV p11NC (second number) [2] | cross-linking of the HIV-1 NC protein in intact virus (gel-mobility shift), in words [1] | Protein (HPLC): reaction rate (p7NC) | also measured
N#Cc1ccccc1SSc1ccccc1C#N [2,2 Dithiobis(benzonitrile)] | Disulfides; also recorded: Adducts | <<15 min | ~15 min |  |  | 
c1ccc2sc(SSc3nc4ccccc4s3)nc2c1 [2,2 Dithiobis(benzothiazole)] | Disulfides |  |  | caused a cross-linking of the HIV-1 NC protein |  | X-link T-½ (min), HIV NC protein [1]: ~60 min; Toxicity (LD-50, mouse) ([3]; route not given): 7000 mg/kg
CC(C)n1cc(C(C)(C)C)nc1SSc1nc(C(C)(C)C)cn1C(C)C [2,2-Dithiobis(4-Tert-Butyl-1-Isopropyl)-Imidazole] | Disulfides |  |  |  |  | X-link T-½ (min), HIV NC protein [1]: >>60 min
[O-][n+]1ccccc1SSc1cccc[n+]1[O-] [2,2-Dithiobis(Pyridine N-Oxide)] | Disulfides | <<15 min | <15 min | caused a cross-linking of the HIV-1 NC protein |  | 
O=C(O)c1ccc(SSc2ccc(C(=O)O)cn2)nc1 [6,6-Dithiodinicotinic Acid] | Disulfides; also recorded: Adducts |  |  |  | (slow) (“Slow” reactions are those in which greater than 10% of the p7NC protein remained in its native form after the 10 minute incubation with reagent) | X-link T-½ (min), HIV NC protein [1]: ~60 min
c1ccc(SSc2ccccn2)nc1 [Aldrithiol-2] | Disulfides; also recorded: Adducts | ~15 min | ~15 min | caused a cross-linking of the HIV-1 NC protein | (slow) (“Slow” reactions are those in which greater than 10% of the p7NC protein remained in its native form after the 10 minute incubation with reagent) | pIC50 (HIV-1): 5.05
[Cl][Cu][Cl] [Cu^+2, cupric chloride] |  |  |  |  |  | change in intrinsic fluorescence of p7NC on incubation (HIV-1 (MN) p7NC): rapid biphasic decrease in fluorescence; final limiting quenching (HIV-1 (MN) p7NC; Zn^+2-coordinated p7NC): 85%; quenching of the original fluorescence, initial phase (HIV-1 (MN) p7NC; Zn^+2-coordinated p7NC): 70%; total protein recovered in peak B (p7NC; 2, 4 or 8 Cu^+2 per p7NC, 44.3 μM protein, 6 minutes, pH 7.4): approximately one half
Cl.Cl.N=C(N)SSC(=N)N [Formamidine Disulfide.2HCl] | Disulfides |  |  |  |  | pIC50 (HIV-1): 4.36
CCCCN(CCCC)C(=S)SSC(=S)N(CCCC)CCCC [Tetrabutylthiuram Disulfide] | Disulfides; also recorded: Adducts | ~30 min | >60 min | caused a cross-linking of the HIV-1 NC protein | (slow) (“Slow” reactions are those in which greater than 10% of the p7NC protein remained in its native form after the 10 minute incubation with reagent) | Toxicity (LD-50, mouse) ([3]; IP): 2350 mg/kg
CC(C)N(C(=S)SSC(=S)N(C(C)C)C(C)C)C(C)C [Tetraisopropylthiuram Disulfide] | Disulfides | >15 min | ~15 min | caused a cross-linking of the HIV-1 NC protein |  | 
CN(C)C(=S)SSC(=S)N(C)C [Tetramethylthiuram Disulfide] | Disulfides | ~30 min | ~15 min | caused a cross-linking of the HIV-1 NC protein | (slow) (“Slow” reactions are those in which greater than 10% of the p7NC protein remained in its native form after the 10 minute incubation with reagent) | Toxicity (LD-50, mouse) ([3]; IP): 70 mg/kg; Toxicity (LD-50, mouse) ([3]; oral): 1350 mg/kg
CC(=O)[O-].CC(=O)[O-].CC(=O)[O-].[Fe+3] [ferric acetate] |  |  |  |  |  | change in intrinsic fluorescence of p7NC on incubation (HIV-1 (MN) p7NC): rapid biphasic decrease in fluorescence
